# According to patent publication US4918062A, “Pharmaceutical compositions for the treatment of cerebral psycho-organic syndromes” (Riace Establishment, priority 1987, dated 1990):
# Experiments:
# learning and memory [1] = assay: pole-climbing test as described by Cook and Weindley (learning and memory); assay type: in vivo; details: male rats, 100 mg/kg i.p.
# acute toxicity in rats = details: rat, in vivo
# Source text: (§1) As far as acute toxicity is concerned, the following data are obtained: […]
# learning and memory [2] = assay: learning and memory tests in laboratory animals (summary statement); assay type: in vivo
# Method: (§2) The GPE administered i.p. to 20 male mice at the dose of 100 mg/kg subjected to the electroshock test as described by Esseman in Pharmacol. Res. comm.
# acute toxicity in mice = details: mouse, in vivo
# Source text: as §1
# learning and memory [3] = assay: electroshock test as described by Esseman (learning and memory); assay type: in vivo; details: male mice, 100 mg/kg i.p.
# Method: as §2
# [4] = acute toxicity in rabbits; details: rabbit, in vivo
# Source text: as §1
# [5] = tested on: senile cerebral alteration, of both involutive and cerebro-vascular insufficiency origin; assay: clinical tests in the treatment of senile cerebral alteration (overall clinical evaluation); assay type: in vivo, man
# Method: 20 patients (10 male and 10 female) 59 to 76 years old were treated; the overall clinical evaluation, taking into account the improvement of the neurophysiological and neurological exams carried out, of the psychometric tests and of the used neurological scale (De Renzi E., Nichelli P.: Verbal and non-verbal short-term memory impairment following hemispheric damage, Cortex, 11, 341-354, 1975; Bisiach E. et. al.: Neurologia Clinica, Ricerche di psicologia, Ed. F. Angeli, Milano, 1977; Cafarra P. et al.: Neuropsychological testing during a transient global amnesia episode and its follow-up, Acta Neurol. Scand.
# [6] = oral route, read-out: oral dose that did not cause either death or any symptomatology
# [7] = case 1, cerebral vasculopathy with mental decline
# [8] = overall clinical evaluation, 20 patients, 59 to 76 years old
compound,measurement,setting,value
"NCCOP(=O)(O)OC[C@H](O)CO [GPE, L-α-glycerylphosphorylethanolamine]",ability to activate learning and memory in comparison to the untreated animals,learning and memory [1],significantly shown the ability to activate learning and memory
same,LD50,"acute toxicity in rats; im, intramuscular route",> 1500 mg/kg
same,NOAEL,acute toxicity in rats; [6],≥ 3000 mg/kg
same,response to the learning and memory tests,learning and memory [2],significantly improve the response to the learning and memory tests
same,LD50,"acute toxicity in mice; im, intramuscular route",> 1500 mg/kg
same,NOAEL,acute toxicity in mice; [6],≥ 3000 mg/kg
same,ability to activate learning and memory in comparison to the untreated animals,learning and memory [3],significantly shown the ability to activate learning and memory
same,LD50,"[4]; im, intramuscular route",> 1000 mg/kg
same,NOAEL,[4]; [6],≥ 3000 mg/kg
same,tolerability (overall),"[5]; 20 patients, 59 to 76 years old",always excellent
same,Evaluation: Activity,[5]; [7],good
same,Evaluation: Tolerability,[5]; [7],very good
same,Evaluation: Activity,"[5]; case 2, mental decline in cerebral vasculopathic",insufficient
same,Evaluation: Activity,"[5]; case 3, cerebral vasculopathy with mental decline",very good
same,Evaluation: Activity,"[5]; case 4, mental involution with serious cerebral atrophy",very good
same,Evaluation: Activity,"[5]; case 5, Alzheimer disease",moderate
same,Evaluation: Activity,"[5]; case 6, cerebral atrophy with extrapiramidal syndrome and decline",moderate
same,Evaluation: Activity,"[5]; case 8, multifocal dementia",good
same,Evaluation: Activity,"[5]; case 9, presenile Alzheimer disease",good
same,Evaluation: Activity,"[5]; case 10, multifocal dementia with incipient cerebral",very good
same,Evaluation: Activity,"[5]; case 11, cerebral vasculopathy with mental decline",very good
same,Evaluation: Activity,"[5]; case 12, Alzheimer disease with cerebral atrophy",good
same,Evaluation: Activity,"[5]; case 13, cerebral vasculopathy with mental decline",good
same,Evaluation: Activity,"[5]; case 14, vasculopathy prevailing in the vertebro-basilar",moderate
same,Evaluation: Activity,"[5]; case 15, cerebral vasculopathy with mental decline",moderate
same,Evaluation: Activity,"[5]; case 16, Alzheimer disease",good
same,Evaluation: Activity,"[5]; case 17, Alzheimer disease with initial cerebral atrophy",very good
same,Evaluation: Activity,"[5]; case 18, Alzheimer disease",very good
same,Evaluation: Activity,"[5]; case 19, cerebral vasculopathy with cerebral atrophy",good
same,Evaluation: Activity,"[5]; case 20, multifocal dementia",good
same,"influence on neurophysiological parameters, psychometric tests and neurologic scales",[5]; man,"ability to influence in a likewise significant way the neurophysiological parameters, the psychometric tests and the used neurologic scales"
same,cases with significantly positive therapeutic effect,[5]; [8],19 cases
same,treatments considered to be insufficient,[5]; [8],only one
same,pharmacological activity in clinical tests,[5]; senile cerebral alteration and related symptomatology,confirmed in clinical tests
